Results published in patent US20050265954A1, “Novel association, a method of its preparation and its uses” (ADAMED, Sp. z.o.o., priority 2004, published 2005).

Legend:
[1] = Light absorption spectra and complex formation in phosphate buffer; type: physicochemical; conditions: phosphate buffer 0.05M, pH 8.5, chlorin p6 1.9·10^−5M
Text: The absorption spectra of the above-obtained associations of polyvinylpyrrolidone with chlorin p6 in the phosphate buffer (0.05M, pH 8.5) are shown on FIG. 1 for the following chlorin p6/polyvinylpyrrolidone ratios (by weight): (1) 1:1; (2) 1:15; (3) 1:40; (4) 1:200; and (5) 1:1000. The concentration of chlorin p6 was 1.9·10^−5M in all investigated solutions.
The chlorin p6-polyvinylpyrrolidone complex has an absorption maximum in the long-wave region of visible light, and this maximum is shifted towards longer wavelengths (664 nm) compared to free chlorin p6, which has an absorption maximum at 656 nm. Therefore, the use of the association according to the invention as a photosensitizer allows for deeper penetration of radiation into biological tissues, which allows for treating solid tumors and/or deeply located lesions.
Formation of the complex of polyvinylpyrrolidone with chlorin p6 results in a series of changes in the absorption spectrum. […]
FIG. 2 presents the experimentally obtained percent of red shift of the absorption maximum of the complex in relation to the content of polyvinylpyrrolidone. […] The spectra were recorded for a series of the solutions of the complex in the phosphate buffer (pH 8.5) at the chlorin p6 concentration of 1.9·10^−5M.

Pliss' lymphosarcoma = assay: Tumor necrosis after photodynamic therapy, Pliss' lymphosarcoma; type: in vivo; conditions: rats, photosensitizer 2.5 mg/kg, laser 660 nm, 50 J/cm^2
Description: The studies were performed on white not-inbred laboratory rats having subcutaneously implanted tumors (Pliss' lymphosarcoma). The dose of the administered photosensitizer was 2.5 mg/kg. The necrosis area was estimated based on the functional condition of the tumor's vascular system following laser irradiation (660 nm) at the radiation dose of 50 J/cm^2, when accumulation of the photosensitizer was the highest.
After 24 hours since the photodynamic therapy, the animals were intravenously given a solution of Evans blue in physiologic saline at the dose of 1.0 ml/100 g of body weight.

[2] = test system: Walker-256 carcinosarcoma; assay: Inhibition of neoplasm's growth, Walker-256 carcinosarcoma; type: in vivo, rats; conditions: 2.5 mg/kg intraperitoneally, 200 J/cm^2
Description: The use of the association according to the invention allows to achieve a high level of the tumor growth inhibition. In order to confirm this effect, the studies were performed using white rats with implanted neoplasms (Walker-256 carcinosarcoma). A solution of the photosensitizer was administered intraperitoneally at doses of 2.5 mg/kg and the tumor was […] at the radiation dose of 200 J/cm^2. The observation was continued for 21 days following the therapy. FIG. 3 and Table 7 show the dynamics of changes of the absolute rate of the tumor growth, resulting from the use of the association according to the invention (1:15) as well as free chlorin p6. The control group consisted of untreated animals.

[3] = reference standard; cited from earlier work

Absorption maximum in the long-wave region of visible light [1] [nm]	Compound	Depth of necrosis (Pliss' lymphosarcoma) [mm]	Necrosis area (Pliss' lymphosarcoma) [%]	Neoplasm's growth ([2]; 3 days after photodynamic therapy) [%]	Neoplasm's growth ([2]; 7 days after photodynamic therapy) [%]	Neoplasm's growth ([2]; 10 days after photodynamic therapy) [%]	Neoplasm's growth ([2]; 14 days after photodynamic therapy) [%]	Neoplasm's growth ([2]; 21 days after photodynamic therapy) [%]	Resumption of tumor growth following the therapy ([2]; observation 21 days)	Quantum yield of the singlet-state oxygen (φλ) of the reference solution [3]
656	C=Cc1c(C)c2cc3nc(c(C(=O)O)c4[nH]c(cc5nc(cc1[nH]2)C(C)=C5CC)c(C)c4C(=O)O)[C@@H](CCC(=O)O)[C@@H]3C (relative stereo) [chlorin p6, 13-carboxy-17-[2-carboxyethyl]-15-carboxy-17,18-trans-dihydro-3-vinyl-8-ethyl-2,7,12,18-tetramethylporphyrin]	7	46.3	0	0	3	8	12	the tumor growth resumes after 10 days	–
–	O=S(=O)([O-])c1ccc(-c2c3nc(c(-c4ccc(S(=O)(=O)[O-])cc4)c4ccc([nH]4)c(-c4ccc(S(=O)(=O)[O-])cc4)c4nc(c(-c5ccc(S(=O)(=O)[O-])cc5)c5ccc2[nH]5)C=C4)C=C3)cc1.[Na+].[Na+].[Na+].[Na+] [TSFP, tetrasodium phenylporphyrintetrasulfonate]	–	–	–	–	–	–	–	–	0.7
